The numbers were not newly measured in publication PMC6062831 (ACS Central Science, 2018), which cites them from elsewhere.

The test system of one data set is human GUS ortholog. Particulars: cited from earlier work.
The next data set deals with Escherichia coli GUS. The conditions noted are these: cited from earlier work.

Each structure is given as a SMILES string. pKi: −log10 of the molar value. Read-outs that look alike come from different tables or passages of the source.

With `O=C(O)[C@@H]1[C@@H](O)[C@H](O)[C@@]2(O)CC[C@@H]1N2` [uronic-noeurostegine], the “inhibition of human GUS ortholog” value in the data set with human GUS ortholog was “potent inhibitors”. Also, the pKi in the data set on Escherichia coli GUS (read-out: Ki against E. coli GUS) is 7.22.

Consider `O=C(O)[C@@H](O)[C@H]1OC(=O)[C@H](O)[C@H]1O` [D-glucaro-1,4-lactone], for which the “inhibition of human GUS ortholog” value in the data set with human GUS ortholog was “potent inhibitors”. In addition, in the data set on Escherichia coli GUS (read-out: Ki against Escherichia coli GUS), the pKi is 4.72.
